Among the data in ChEMBL document CHEMBL1158225, “Antiplatelet flavonoids from seeds of Psoralea corylifolia” (J Nat Prod, 1996) are IC50 and Activity values, retold here.

Each structure is given as a SMILES string. The source made the active and inactive calls. The calls are words filed in the database; no cut-off is given here.

What all share (type): functional, cell-based
What all share (conditions): Oryctolagus cuniculus

Test [1] is described as follows: Antiplatelet activity against rabbit platelet assessed as inhibition of collagen-induced platelet aggregation preincubated for 3 mins by turbidimetric method.
A short description of test [2]: (§1) Antiplatelet activity against rabbit platelet assessed as inhibition of platelet-activating factor-induced platelet aggregation preincubated for 3 mins by turbidimetric method.
Test [3] in a line: Antiplatelet activity against rabbit platelet assessed as inhibition of arachidonic acid-induced platelet aggregation preincubated for 3 mins by turbidimetric method.
The subject of test [4] is Platelet. The test is described as §1.
The test system of test [5] is Platelet. Put plainly: Antiplatelet activity against rabbit platelet assessed as inhibition of platelet-activating factor-induced platelet aggregation at 300 uM preincubated for 3 mins by turbidimetric method.
The subject of test [6] is Platelet. Put plainly: Antiplatelet activity against rabbit platelet assessed as inhibition of collagen-induced platelet aggregation at 300 uM preincubated for 3 mins by turbidimetric method.
Test [7] deals with Platelet. Put plainly: Antiplatelet activity against rabbit platelet assessed as inhibition of arachidonic acid-induced platelet aggregation at 300 uM preincubated for 3 mins by turbidimetric method.

As to `CC(=O)Oc1ccccc1C(=O)O` [ASPIRIN], in test [1], the IC50 – broadly, the concentration that gives 50% inhibition – was found to be 30.5 µM.

As to `CC(C)=CCc1c(O)ccc(C(=O)/C=C/c2ccc(O)cc2)c1O` [ISOBAVACHALCONE], the IC50 came out at 41.6 µM in test [2], 0.5 µM in test [3] and 65.1 µM in test [1].

Take `CCCCCCCCCCCCCCCCCCNC(=O)OCC(COP(=O)([O-])OCC[n+]1ccsc1)OC` (configuration not stated): the IC50 in test [2] stood at 1.1 µM.

For the compound `CC(C)=CCc1cc(-c2coc3cc(O)ccc3c2=O)ccc1O` [NEOBAVAISOFLAVONE], the Activity result with Platelet [4] was “Dose-dependent effect”. For the same compound, the IC50 in test [2] was 2.5 µM; in test [3], 7.8 µM; in test [1] it was 62.4 µM.

As to `CC(C)=CCc1cc2c(cc1O)O[C@H](c1ccc(O)cc1)CC2=O`, the outcome in the test with Platelet [5], in the test on Platelet [6] and with Platelet [7] was inactive.
